In paper PMC7096432, “Transport and kinase activities of CbrA of Pseudomonas putida KT2440” (Scientific Reports, 2020):
One block for each molecule: values may come before it.

What was measured:
CbrA = target: T1, CbrA (Pseudomonas putida, UniProt Q88DX3); test: DRaCALA, E. coli C43 membrane vesicles; type: binding; conditions: 1.35 µM ligand, 100 mM KPi pH 7.5, 25 °C; labelled compound
T1 construct: gene PP_4695; full length, 109 kDa predicted
T1 sequence (Q88DX3 1-991): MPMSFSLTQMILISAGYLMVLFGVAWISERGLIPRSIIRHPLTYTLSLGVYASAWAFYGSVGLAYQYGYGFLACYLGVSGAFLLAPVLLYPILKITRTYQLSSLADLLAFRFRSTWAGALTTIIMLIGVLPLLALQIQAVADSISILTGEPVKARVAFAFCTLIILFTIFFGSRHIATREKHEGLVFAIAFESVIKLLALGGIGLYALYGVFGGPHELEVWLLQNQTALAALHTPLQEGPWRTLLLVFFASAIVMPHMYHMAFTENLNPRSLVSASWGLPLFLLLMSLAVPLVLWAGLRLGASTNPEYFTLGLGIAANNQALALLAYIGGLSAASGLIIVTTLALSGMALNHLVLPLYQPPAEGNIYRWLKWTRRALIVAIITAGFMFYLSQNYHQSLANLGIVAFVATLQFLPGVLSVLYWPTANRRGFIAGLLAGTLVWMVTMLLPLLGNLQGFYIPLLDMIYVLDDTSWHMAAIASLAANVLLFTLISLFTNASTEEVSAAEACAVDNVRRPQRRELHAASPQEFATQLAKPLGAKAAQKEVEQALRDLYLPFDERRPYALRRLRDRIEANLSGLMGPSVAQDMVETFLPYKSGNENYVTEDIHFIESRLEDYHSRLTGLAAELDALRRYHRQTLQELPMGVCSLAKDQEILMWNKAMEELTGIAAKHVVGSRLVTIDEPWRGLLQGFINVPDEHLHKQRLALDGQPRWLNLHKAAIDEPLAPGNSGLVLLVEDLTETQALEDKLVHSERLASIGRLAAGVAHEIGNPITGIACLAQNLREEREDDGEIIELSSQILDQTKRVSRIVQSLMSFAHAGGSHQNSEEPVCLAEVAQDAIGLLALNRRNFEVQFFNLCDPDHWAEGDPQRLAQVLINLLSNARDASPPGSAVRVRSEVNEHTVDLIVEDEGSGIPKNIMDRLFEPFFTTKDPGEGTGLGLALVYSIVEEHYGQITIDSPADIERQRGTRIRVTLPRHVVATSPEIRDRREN

PAS domain of CbrA [1] = target: T2, PAS domain of CbrA (Pseudomonas putida, UniProt Q88DX3); test: thermal shift, nanoDSF; type: binding; conditions: read-out: dTm at 1 mM
T2 construct: gene PP_4695; PAS domain, residues 614-745, C-terminal 12His tag, E. coli BL21 / C43, Ni-NTA purified
T2 sequence (Q88DX3 614-745): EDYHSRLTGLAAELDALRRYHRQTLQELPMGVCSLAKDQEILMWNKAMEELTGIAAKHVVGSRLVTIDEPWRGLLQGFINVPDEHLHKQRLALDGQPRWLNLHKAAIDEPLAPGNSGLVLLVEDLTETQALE

PAS domain of CbrA [2] = target: T2, PAS domain of CbrA; test: thermal shift titration, nanoDSF; type: binding
SLC5 domain of CbrA = target: T3, SLC5 domain of CbrA (Pseudomonas putida, UniProt Q88DX3); test: DRaCALA, E. coli C43 membrane vesicles; type: binding; conditions: 1.35 µM ligand, 100 mM KPi pH 7.5, 25 °C; labelled compound
T3 construct: gene PP_4695; SLC5 transporter domain, residues 3-544
T3 sequence (Q88DX3 3-544): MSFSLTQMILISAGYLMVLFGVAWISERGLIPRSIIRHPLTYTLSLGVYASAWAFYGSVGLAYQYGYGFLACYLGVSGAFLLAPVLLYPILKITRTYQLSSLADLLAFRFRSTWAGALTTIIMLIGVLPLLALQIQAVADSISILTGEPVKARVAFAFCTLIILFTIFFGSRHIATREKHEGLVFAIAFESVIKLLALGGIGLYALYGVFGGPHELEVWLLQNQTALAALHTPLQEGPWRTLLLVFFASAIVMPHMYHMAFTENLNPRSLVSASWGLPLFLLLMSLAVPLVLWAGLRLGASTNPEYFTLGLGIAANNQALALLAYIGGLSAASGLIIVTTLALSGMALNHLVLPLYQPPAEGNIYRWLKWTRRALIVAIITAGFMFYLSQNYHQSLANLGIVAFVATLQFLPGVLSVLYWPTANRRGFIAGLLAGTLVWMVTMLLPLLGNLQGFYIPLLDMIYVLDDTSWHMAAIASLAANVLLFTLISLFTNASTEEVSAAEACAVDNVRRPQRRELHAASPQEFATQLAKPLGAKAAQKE

CbrAΔSLC5 = target: T4, CbrAΔSLC5 (Pseudomonas putida, UniProt Q88DX3); test: autophosphorylation, SDS-PAGE; type: biochemical; conditions: 50 mM Tris-HCl pH 7.5, 10 mM MgCl2, 360 mM KCl, 30 °C; labelled compound
T4 construct: gene PP_4695; cytoplasmic domains, residues 614-992, C-terminal 12His tag, 44 kDa predicted, E. coli C41, Ni-NTA purified
T4 sequence (Q88DX3 614-991): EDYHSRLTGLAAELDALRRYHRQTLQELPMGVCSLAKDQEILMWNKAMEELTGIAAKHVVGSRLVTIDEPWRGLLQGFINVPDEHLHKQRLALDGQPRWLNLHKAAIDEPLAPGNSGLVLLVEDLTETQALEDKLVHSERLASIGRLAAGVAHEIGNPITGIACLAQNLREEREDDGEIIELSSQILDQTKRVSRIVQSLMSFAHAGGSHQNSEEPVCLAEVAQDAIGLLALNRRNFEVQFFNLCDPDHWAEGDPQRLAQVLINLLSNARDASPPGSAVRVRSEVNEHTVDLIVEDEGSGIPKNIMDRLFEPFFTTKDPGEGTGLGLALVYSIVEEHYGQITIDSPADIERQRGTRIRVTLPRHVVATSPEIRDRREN

[3] = substrate: N[C@@H](Cc1c[nH]cn1)C(=O)O; test: 3H-L-histidine uptake into P. putida LW1 cells; type: cell-based, Pseudomonas putida; conditions: transport, 100 mM Tris/MES pH 6.0, 25 °C, energized with 10 mM D-lactate, background subtracted, labelled compound

ΔTm at 1000 µM (PAS domain of CbrA [1]): 0.73 ± 0.13 °C | Kd (PAS domain of CbrA [2]): 43 ± 13 µM
Molecule: N[C@@H](Cc1cnc[nH]1)C(=O)O [L-histidine]
bound fraction (CbrA): evidence for binding of ^3H-L-histidine to CbrA and the SLC5 domain | bound fraction (SLC5 domain of CbrA): evidence for binding of ^3H-L-histidine to CbrA and the SLC5 domain

Molecule: Nc1ncnc2c1ncn2[C@@H]1O[C@H](COP(=O)(O)OP(=O)(O)OP(=O)(O)O)[C@@H](O)[C@H]1O [γ-32P-ATP]
autophosphorylation, 32P SDS-PAGE (CbrAΔSLC5): catalyzed both autophosphorylation and transfer of the phosphoryl group to CbrB

B1: SLC5 domain of CbrA (Pseudomonas putida KT2440) (protein)
chain: T3 sequence (Q88DX3 3-544)
notes: SLC5 transporter domain, residues 3-544
Km [3]: 0.58 ± 0.18 µM

B2: CbrA (Pseudomonas putida KT2440) (protein)
chain: T1 sequence (Q88DX3 1-991)
notes: full length, 109 kDa predicted
Km [3]: 0.7 ± 0.2 µM
